From patent US20080039432A1, “Active Compound Combinations Having Insecticidal Properties” (priority 2004, published 2008)
Where two headings read alike, the source gives them in different places.

Columns and labels:
Assay type in all cases: in vivo
[1] = test system: Myzus persicae
Experimental: (§1) To produce a suitable preparation of active compound, 1 part by weight of active compound is mixed with the stated amounts of solvent and emulsifier, and the concentrate is diluted with emulsifier-containing water to the desired concentration.
Cabbage leaves (Brassica oleracea) which are heavily infested by the green peach aphid (Myzus persicae) are treated by being dipped into the preparation of active compound of the desired concentration.
After the desired period of time, the kill in % is determiined. 100% means that all aphids have been killed; 0% means that none of the aphids have been killed. The determined kill rates are entered into Colby's formula.

[2] = test system: Plutella xylostella, resistant strain; conditions: Table A, 20 ppm, caterpillars on dipped cabbage leaves
Experimental: Plutella Xylostella Test, Resistant Strain
as §1
Cabbage leaves (Brassica oleracea) are treated by being dipped into the active compound preparation of the desired concentration and are populated with caterpillars of the diamondback moth (Plutella xylostella, resistant strain) while the leaves are still moist.
After the desired period of time, the kill in % is determined. 100% means that all caterpillars have been killed; 0% means that none of the caterpillars have been killed. The determined kill rates are entered into Colby's formula.

[3] = test system: Phaedon cochleariae larvae; assay: Phaedon cochleariae larvae test (cabbage leaf dip)
Experimental: Phaedon Cochleariae Larvae Test
as §1
Cabbage leaves (Brassica oleracea) are treated by being dipped into the active compound preparation of the desired concentration and are populated with larvae of the mustard beetle (Phaedon cochleariae) while the leaves are still moist.
After the desired period of time, the kill in % is determined. 100% means that all larvae have been killed; 0% means that none of the larvae have been killed. The determined kill rates are entered into Colby's formula.

Compound: ethoprophos
- Kill in % after 1 d ([1]; Table B2, 20 ppm): 0%
- Kill in % after 6 days [2]: 5%

Compound: CN/C(=N/[N+](=O)[O-])NCc1cnc(Cl)s1 [clothianidin]
- Kill in % after 1 d ([1]; Table B1, 0.80 ppm): 50%
- Kill in % after 6 days [2]: 0%
- Kill in % after 1 d ([3]; Table C2, 4 ppm): 65%

Compound: O=[N+]([O-])N=C1NCCN1Cc1ccc(Cl)nc1 [imidacloprid]
- Kill in % after 1 d ([1]; Table B1, 0.16 ppm): 20%
- Kill in % after 1 d ([1]; Table B2, 0.16 ppm): 10%
- Kill in % after 1 d ([3]; Table C1, 4 ppm): 5%
- Kill in % after 1 d ([3]; Table C2, 4 ppm): 20%

Compound: CNC(=O)O/N=C/C(C)(C)SC [aldicarb]
- Kill in % after 1 d ([1]; Table B1, 4 ppm): 45%
- Kill in % after 1 d ([3]; Table C1, 20 ppm): 25%
- Kill in % after 1 d ([3]; Table C2, 20 ppm): 25%
